{
  "source": "paper PMC7782499",
  "about": "“Progerinin, an optimized progerin-lamin A binding inhibitor, ameliorates premature senescence phenotypes of Hutchinson-Gilford progeria syndrome” (Communications Biology, 2021)",
  "molecular_target": "T1, progerin (Homo sapiens, UniProt P02545)",
  "T1 sequence (P02545 1-614 isoform P02545-6)": "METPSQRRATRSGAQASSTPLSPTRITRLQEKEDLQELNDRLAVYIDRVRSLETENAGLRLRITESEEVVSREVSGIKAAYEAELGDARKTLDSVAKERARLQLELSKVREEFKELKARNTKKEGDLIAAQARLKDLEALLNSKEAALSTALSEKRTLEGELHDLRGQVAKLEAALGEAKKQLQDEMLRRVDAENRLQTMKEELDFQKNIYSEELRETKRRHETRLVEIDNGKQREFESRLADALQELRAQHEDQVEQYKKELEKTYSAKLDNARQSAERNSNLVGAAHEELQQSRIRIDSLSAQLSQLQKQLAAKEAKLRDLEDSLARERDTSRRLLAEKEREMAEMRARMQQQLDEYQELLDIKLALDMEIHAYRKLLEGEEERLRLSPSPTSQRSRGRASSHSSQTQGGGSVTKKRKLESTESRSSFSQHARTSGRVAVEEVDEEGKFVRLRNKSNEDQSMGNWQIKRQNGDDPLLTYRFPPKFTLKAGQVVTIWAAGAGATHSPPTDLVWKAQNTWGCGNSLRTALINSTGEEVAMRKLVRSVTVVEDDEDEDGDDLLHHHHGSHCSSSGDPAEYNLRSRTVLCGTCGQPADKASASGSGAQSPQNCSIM",
  "assay": "Exogenous GFP-progerin expression in transfected HEK293 cells",
  "assay_type": "cell-based",
  "set-up": "expressed in transfected cells; host or cells: HEK293 (ATCC); vector from T. Misteli (NCI)",
  "conditions": "for GFP intensity after treatment with SLC-D011, Ave: average; for GFP intensity after treatment with SLC-D011: single replicates",
  "method": "A. In vivo pharmacokinetic (PK) analysis of JH010 (performed in rats). […] B Effect of SLC-D011 on human ERG (hERG). […] C In vivo pharmacokinetic analysis of SLD-D011. […] HEK293 cells transiently transfected with GFP-PG vectors were treated with SLC-D011 for 24 hr (n = 3 independent experiment; two-tailed Student’s t test). […] “Con” means dimethyl sulfoxide (DMSO)-treated control.\nGFP tag conjugated EV (GFP-EV), lamin A (GFP-LA), lamin A-C661A (GFP-LA-C661A), progerin (GFP-PG), and progerin-C611A (GFP-PG-C611A) vectors were used. GFP-PG and GFP-LA expression vectors were kindly provided by Misteli T. (National Cancer Institute [NCI], Frederick, MD, USA). GFP-LA-C661A and GFP-PG-C611A expression vectors were created by a single point mutation in CaaX motif. The CSIM sequence of lamin A, or progerin was mutated to ASIM. jetPEI (Polyplus Transfection, NY, USA) was used for transfection of expression vectors. Vectors were mixed with 1.5 μl of jetPEI in 150 mM NaCl solution. The mixture was added to HEK293 cells. After 4 h of incubation, medium was replaced with a new medium supplemented with 10% FBS.\nProtein was extracted from cells using a radioimmunoprecipitation assay (RIPA) buffer (50 mM Tris-Cl, pH 7.5, 150 mM NaCl, 1% NP-40, 0.1% SDS, and 10% sodium deoxycholate). Samples were separated by sodium dodecyl sulfate-polyacrylamide gel electrophoresis (SDS-PAGE) and transferred to polyvinylidene difluoride (PVDF) membranes. Blotted membranes were blocked with 3% skimmed milk in TBS-T buffer (20 mM Tris pH 7.6, 150 mM NaCl, and 0.05% Tween 20) for 1 h followed by incubation with specific primary antibodies. Horseradish peroxidase (HRP)-conjugated goat anti-mouse, goat anti-rabbit, and mouse anti-goat IgG antibodies (Pierce, Thermo Fisher Scientific, Inc., Rockford, IL, USA) were used as secondary antibodies. Peroxidase activity was detected by chemiluminescence using an ECL kit (Intron, Seoul, Korea) following the manufacturer’s instructions. Bands were quantified using Image J software (National Institute of Health, NIH).",
  "note": "Several values for one entry are separate records, joined by “and”; a condition that tells them apart may be missing. Equal entries are not always repeated.",
  "data": [
    {"molecule": "CC1(C)Oc2cc3oc(=O)ccc3cc2C[C@@H]1OC/C=C/c1ccccc1", "note": "[SLC-D011]", "values": [
      {"measurement": "GFP intensity after treatment with SLC-D011, Ave", "setting": "10nM", "value": 23.7595, "unit": "AU"},
      {"measurement": "GFP intensity after treatment with SLC-D011", "setting": "10nM", "value": "22.794 AU and 22.0662 AU and 26.4183 AU"},
      {"measurement": "GFP intensity after treatment with SLC-D011, Ave", "setting": "50nM", "value": 15.0559, "unit": "AU"},
      {"measurement": "GFP intensity after treatment with SLC-D011", "setting": "50nM", "value": "15.1696 AU and 15.171 AU and 14.827 AU"},
      {"measurement": "GFP intensity after treatment with SLC-D011, Ave", "setting": "100nM", "value": 3.935, "unit": "AU"},
      {"measurement": "GFP intensity after treatment with SLC-D011", "setting": "100nM", "value": "3.384 AU and 4.172 AU and 4.251 AU"},
      {"measurement": "GFP intensity after treatment with SLC-D011, Ave", "setting": "500nM", "value": 1.357, "unit": "AU"},
      {"measurement": "GFP intensity after treatment with SLC-D011", "setting": "500nM", "value": "1.4575 AU and 1.25 AU and 1.363 AU"},
      {"measurement": "GFP intensity after treatment with SLC-D011, Ave", "setting": "1μM", "value": 1.02, "unit": "AU"},
      {"measurement": "GFP intensity after treatment with SLC-D011", "setting": "1μM", "value": "0.898 AU and 1.076 AU and 1.085 AU"},
      {"measurement": "GFP intensity after treatment with SLC-D011, Ave", "setting": "2μM", "value": 0.8179, "unit": "AU"},
      {"measurement": "GFP intensity after treatment with SLC-D011", "setting": "2μM", "value": "0.8856 AU and 0.7639 AU and 0.8042 AU"},
      {"measurement": "GFP intensity after treatment with SLC-D011, Ave", "setting": "5μM", "value": 0.08935, "unit": "AU"},
      {"measurement": "GFP intensity after treatment with SLC-D011", "setting": "5μM", "value": "0.1141 AU and 0.03666 AU and 0.1173 AU"},
      {"measurement": "Concentration from which exogenous progerin expression is reduced", "setting": "HEK293, GFP-PG, 24 hr", "value": 100, "unit": "nM"}
    ]}
  ]
}
